Consider one compound from patent US20230374035A1, “RAS INHIBITORS” (Revolution Medicines, Inc., priority 2019, published 2023).

The subject of one assay is NCI-H358 (K-Ras G12C). Kind of assay: CellTiter-Glo Cell Viability Assay. The assay is classed as cell-based. To be noted: Homo sapiens, NCI-H358, 120 h; H358, 5-day treatment. Background: ATP-based viability assays read luminescence as a measure of living cells.
Another assay deals with KRAS G12S (Homo sapiens, UniProt P01116+P62937, G12S). Kind of assay: Disruption of BRAF RBD interaction with K-Ras (FRET / MOA assay). The assay is classed as biochemical. In outline: (§1)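 TR-FRET readout: a drop in ratio versus DMSO wells marks disruption of the Ras:BRAF^RBD complex, reported as IC50. Compound acts via a Cyclophilin A ternary complex with nucleotide-loaded Ras (e.g., GMP-PNP). Top final concentration was 30 μM, 10 points, 3-fold steps.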
KRAS G12S, sequence (P01116 1-188 isoform P01116-2 G12S): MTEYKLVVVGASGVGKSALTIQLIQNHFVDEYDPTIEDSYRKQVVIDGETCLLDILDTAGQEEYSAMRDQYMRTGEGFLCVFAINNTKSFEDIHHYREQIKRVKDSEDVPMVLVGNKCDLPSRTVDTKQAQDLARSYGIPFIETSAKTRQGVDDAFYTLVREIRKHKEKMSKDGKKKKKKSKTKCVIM
KRAS G12S, sequence (P62937 whole entry): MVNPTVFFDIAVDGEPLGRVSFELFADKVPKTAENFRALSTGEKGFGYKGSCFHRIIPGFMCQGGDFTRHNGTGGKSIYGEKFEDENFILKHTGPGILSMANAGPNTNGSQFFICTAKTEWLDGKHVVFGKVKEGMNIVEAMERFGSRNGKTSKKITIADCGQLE

A further assay has as its target KRAS G12C (Homo sapiens, UniProt P01116+P62937, G12C). Described as above. The format is biochemical. To be noted: read-out: KRAS G12C FRET data IC50. In outline:
as §1

Another assay concerns the target KRAS G13C (Homo sapiens, UniProt P01116+P62937, G13C). The assay is described as above. The assay is classed as biochemical. Conditions: read-out: KRAS G13C FRET data IC50. In outline: as §1
The next assay deals with KRAS Q61H (Homo sapiens, UniProt P01116+P62937, Q61H). The assay is described as above. The assay is classed as biochemical. To be noted: read-out: KRAS Q61H FRET data IC50. The essentials: as §1
KRAS Q61H, sequence (P01116 1-188 isoform P01116-2 Q61H): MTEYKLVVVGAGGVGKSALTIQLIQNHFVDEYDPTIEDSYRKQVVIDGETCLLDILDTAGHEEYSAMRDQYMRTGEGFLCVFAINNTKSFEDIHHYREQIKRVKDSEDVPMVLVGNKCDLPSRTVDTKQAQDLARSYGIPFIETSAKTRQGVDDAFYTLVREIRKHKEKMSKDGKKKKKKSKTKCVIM
KRAS Q61H, sequence (P62937 whole entry): as the sequence (P62937 whole entry) above
The target in another assay is NRAS G12C (Homo sapiens, UniProt P01111+P62937, G12C). Kind of assay: Disruption of BRAF RBD interaction with Ras (FRET / MOA assay). The assay is classed as biochemical. The essentials:
as §1

The target in the next assay is NRAS WT (Homo sapiens, UniProt P01111+P62937). The assay is described as above. The assay is classed as biochemical. Conditions: read-out: NRAS WT FRET data IC50. The essentials: as §1
NRAS WT, sequence (P01111 whole entry): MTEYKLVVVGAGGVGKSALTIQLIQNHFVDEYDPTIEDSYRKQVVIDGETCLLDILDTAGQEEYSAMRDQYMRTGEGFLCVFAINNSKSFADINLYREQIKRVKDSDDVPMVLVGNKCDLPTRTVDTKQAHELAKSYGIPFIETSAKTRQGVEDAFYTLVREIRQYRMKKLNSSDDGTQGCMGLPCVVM
NRAS WT, sequence (P62937 whole entry): as the sequence (P62937 whole entry) above
The target in another assay is NRAS Q61K (Homo sapiens, UniProt P01111+P62937, Q61K). The assay is described as above. The format is biochemical. To be noted: read-out: NRAS Q61K FRET data IC50. The essentials: as §1
NRAS Q61K, sequence (P01111 whole entry Q61K): as the sequence (P01111 whole entry) above, with Q61K counted along it
NRAS Q61K, sequence (P62937 whole entry): as the sequence (P62937 whole entry) above
The target of a further assay is NRAS Q61R (Homo sapiens, UniProt P01111+P62937, Q61R). The assay is described as above. The assay is classed as biochemical. To be noted: read-out: NRAS Q61R FRET data IC50. The essentials: as §1
NRAS Q61R, sequence (P01111 whole entry Q61R): as the sequence (P01111 whole entry) above, with Q61R counted along it
NRAS Q61R, sequence (P62937 whole entry): as the sequence (P62937 whole entry) above

NRAS G12C, sequence (P01111 whole entry G12C): as the sequence (P01111 whole entry) above, with G12C counted along it
NRAS G12C, sequence (P62937 whole entry): as the sequence (P62937 whole entry) above
KRAS G13C, sequence (P01116 1-188 isoform P01116-2 G13C): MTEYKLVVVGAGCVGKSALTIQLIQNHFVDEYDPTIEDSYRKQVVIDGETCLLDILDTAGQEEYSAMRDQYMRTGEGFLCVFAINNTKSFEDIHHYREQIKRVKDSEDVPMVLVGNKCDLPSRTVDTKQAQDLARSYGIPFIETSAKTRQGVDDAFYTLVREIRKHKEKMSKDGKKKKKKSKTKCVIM
KRAS G13C, sequence (P62937 whole entry): as the sequence (P62937 whole entry) above
KRAS G12C, sequence (P01116 1-188 isoform P01116-2 G12C): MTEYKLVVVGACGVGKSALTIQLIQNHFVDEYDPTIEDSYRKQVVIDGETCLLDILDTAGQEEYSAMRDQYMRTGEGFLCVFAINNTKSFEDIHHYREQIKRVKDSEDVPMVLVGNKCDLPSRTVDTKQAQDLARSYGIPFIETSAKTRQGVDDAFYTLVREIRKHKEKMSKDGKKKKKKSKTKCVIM
KRAS G12C, sequence (P62937 whole entry): as the sequence (P62937 whole entry) above

With `CCn1c(-c2cccnc2[C@H](C)OC)c2c3cc(ccc31)-c1cc(O)cc(c1)C[C@H](NC(=O)[C@H](C(C)C)N(C)C(=O)[C@@H]1CCN(C(=O)OC)[C@@H]1c1ccccc1)C(=O)N1CCC[C@H](N1)C(=O)OCC(C)(C)C2` (atropisomer, axis not shown) [Compound A501], the 50% inhibitory concentration (IC50) in the assay on NCI-H358 (K-Ras G12C), at KRAS G12S, on KRAS G12C, at KRAS G13C, at KRAS Q61H and against NRAS G12C was less than 10 nM in each case. Besides, the concentration for half-maximal inhibition (IC50) on NRAS WT was less than 10 nM; at NRAS Q61K it was 10 to 100 nM; on NRAS Q61R, 10 to 100 nM.

One may read the IC50 as the concentration needed to halve the response being measured.
